The source of these data is ChEMBL document CHEMBL1146775 (2004).

Experiment [1] relates to Oryctolagus cuniculus. The experiment can be described thus: Vascular relaxation of rabbit carotid model at 0.1 M/L concentration with 5 mg/kg PPVP. Format: functional.
Experiment [2] is filed under the species Oryctolagus cuniculus. The experiment can be described thus: Vascular relaxation of rabbit carotid model (high lipid diet) at 0.1 M/L concentration. Format: functional.
Experiment [3] addresses Muscarinic acetylcholine receptor M3 (Cavia porcellus) (UniProt Q8VH26). To be noted: Ileum.
The species entered for experiment [4] is Rattus norvegicus. The experiment is described as follows: Rate of relaxation of Atropine treated rat aorta. Format: functional.
The species entered for experiment [5] is Rattus norvegicus. The experiment can be described thus: Rate of relaxation of L-NAME treated rat aorta. Format: functional.
For experiment [6], the species on record is Rattus norvegicus. The experiment can be described thus: Rate of relaxation of endothelium denuded rat aorta. Format: functional.
A short description of experiment [7]: Maximal rate of vascular endothelium-dependent relaxation at the concentration of 10E-5 M/L. To be noted: Oryctolagus cuniculus.
The species named for experiment [8] is Rattus norvegicus. The experiment is described as follows: Rate of relaxation of Indomethacin treated rat aorta. Type of experiment: functional.
Experiment [9] is filed under the species Rattus norvegicus. The experiment is described as follows: Rate of relaxation of endothelium intact rat aorta. Format: functional.

The structures appear in SMILES notation. Activity calls are given as the source filed them. No rule for the calls is given here.

Chain of Muscarinic acetylcholine receptor M3 (Cavia porcellus) (Q8VH26 1-587): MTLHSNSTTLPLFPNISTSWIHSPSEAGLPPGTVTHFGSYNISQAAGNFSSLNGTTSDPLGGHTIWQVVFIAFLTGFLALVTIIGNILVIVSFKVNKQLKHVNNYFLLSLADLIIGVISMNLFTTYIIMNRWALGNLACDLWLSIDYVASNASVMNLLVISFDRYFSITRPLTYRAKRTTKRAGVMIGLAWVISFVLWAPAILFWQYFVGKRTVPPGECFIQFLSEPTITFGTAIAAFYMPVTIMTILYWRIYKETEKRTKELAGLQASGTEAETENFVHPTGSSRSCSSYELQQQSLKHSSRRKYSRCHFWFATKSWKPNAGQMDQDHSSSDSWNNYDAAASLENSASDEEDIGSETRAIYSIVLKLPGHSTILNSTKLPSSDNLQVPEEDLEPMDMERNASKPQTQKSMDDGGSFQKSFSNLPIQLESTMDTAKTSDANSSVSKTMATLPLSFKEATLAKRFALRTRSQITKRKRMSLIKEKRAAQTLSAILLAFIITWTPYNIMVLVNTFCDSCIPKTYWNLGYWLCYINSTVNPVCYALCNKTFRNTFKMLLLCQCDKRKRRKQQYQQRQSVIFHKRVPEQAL

For the compound `CC(=O)OCC[N+](C)(C)C` [ACETYLCHOLINE], the Relaxation in the experiment with Oryctolagus cuniculus [1] worked out at 65.9%; in the experiment filed under Oryctolagus cuniculus [2], 32.2%.

For the compound `CCOP(=O)(OCC)C(c1ccc(O)c(OC)c1)N1CCN(c2ccccn2)CC1.Cl` (stereo not drawn), in experiment [3], the Contraction entry was “inactive”. Moreover, the Relaxation in the experiment filed under Rattus norvegicus [4] is 85.7%; in the experiment filed under Rattus norvegicus [5] it was 28.8%; in the experiment filed under Rattus norvegicus [6] it was 13.9%; in [7], greater than 50%; in the experiment filed under Rattus norvegicus [8], 23.8%; in the experiment filed under Rattus norvegicus [9], 81.4%.

On to `CCOP(=O)(OCC)C(c1cc(Cl)cc(Cl)c1O)N1CCN(c2ccccn2)CC1` (stereo not drawn), for which the Contraction entry in [3] was “inactive”. Further, the Relaxation in [7] was greater than 50%.

With `CCOP(=O)(OCC)C(c1cc(OC)c(O)c(OC)c1)N1CCN(c2ccccn2)CC1.Cl` (stereo not drawn), in experiment [3], the Contraction result was “inactive”. Moreover, the Relaxation in the experiment filed under Rattus norvegicus [4] is 82.6%; in the experiment listed under Rattus norvegicus [5], 26.2%; in the experiment listed under Rattus norvegicus [6], 5.7%; in experiment [7] it was greater than 50%; in the experiment listed under Rattus norvegicus [8], 14.2%; in the experiment listed under Rattus norvegicus [9], 84%.
